Reference: PubChem BioAssay (NCI)
Where “and” joins values, the source holds several entries; their conditions need not be identical. Identical values can stand only once.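 Growth conditions: 96-well plates. Treatment: test compound, 48 hours, 5 concentrations. Analysis: linear interpolation between bracketing concentrations; unreached endpoints set to highest concentration. Here, GI50 denotes the concentration required for 50% inhibition of growth. TGI denotes the concentration required for complete inhibition of growth.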

What was measured:
Assay in all cases: NCI-60 cell line screen, 48 h
[1] = tested on: PC-3 prostate
[2] = tested on: KM12 colon
[3] = tested on: NCI-H23 lung
[4] = tested on: SK-MEL-2 melanoma
[5] = tested on: TK-10 renal
[6] = tested on: OVCAR-4 ovarian
[7] = tested on: HOP-92 NSCLC
[8] = tested on: COLO 205 colon
[9] = tested on: HL-60(TB) leukemia
[10] = tested on: OVCAR-8 ovarian

Row | SMILES | GI50 [1] | TGI [1] | GI50 [2] | TGI [2] | GI50 [3] | TGI [3] | TGI [4] | GI50 [5] | TGI [5] | GI50 [6] | TGI [6] | GI50 [7] | TGI [7] | GI50 [8] | GI50 [9] | TGI [9] | GI50 [10] | TGI [10] | GI50 [4] | TGI [8]
1 | COc1ccc(/C=C\c2cc(OC)c(OC)c(OC)c2)cc1OC(=O)c1cccc(Cn2cc(CCOC(=O)c3cccc(Cn4nnc5c4C(=O)c4ccccc4C5=O)c3)nn2)c1 | < 10 nM | > 100 µM | < 13.3 nM | > 77.6 µM | < 0.01 µM | 18.3 µM | 33.1 µM | 9.58 µM | 33.5 µM | 0.0403 µM | > 100 µM | 0.464 µM | 33.7 µM | 344 nM | < 10 nM | 0.0125 µM | < 0.01 µM | > 44.8 µM | – | –
2 | CCOC(=O)C1=C(C)NC2SC(=O)/C(=C\c3ccccc3)N2C1c1ccccc1 (stereo unspecified) | 31000 nM | > 100 µM | 73700 nM | > 100 µM | > 100 µM | > 100 µM | > 100 µM | 56.2 µM | > 100 µM | 78.1 µM | > 100 µM | > 100 µM | > 100 µM | > 100000 nM | 25600 nM | > 100 µM | > 100 µM | > 100 µM | > 100000 nM | > 100 µM
3 | COc1cc(C2CC(c3cc(C)ccc3C)=NN2c2ccc(S(=O)(=O)NC(=O)NCc3ccccc3)cc2)cc(OC)c1OC (stereo unspecified) | 2540 nM | 12.3 µM | 3440 nM | 17.6 µM | 3.37 µM | 19.5 µM | 6.25 µM | 4.74 µM | 31 µM | 3.28 µM | 39.6 µM | 1.96 µM | 7.47 µM | – | 3620 nM | 11.4 µM | 3.77 µM | 32.4 µM | 2810 nM | –
4 | COc1cc([C@@H]2c3cc4c(cc3[C@H](O)[C@H]3COC(=O)[C@H]23)OCO4)cc(OC)c1OC | < 10 nM | > 100 µM and 50 µM | < 10 nM | – | < 0.01 µM | > 100 µM and 50 µM and > 7.43 µM | – | < 0.005 µM | > 100 µM and 50 µM | < 0.005 µM | – | < 0.01 µM | – | < 10 nM | < 10 nM | < 0.005 µM | < 0.01 µM | > 100 µM and 50 µM and > 7.6 µM | < 5 nM | < 0.005 µM
5 | CC1OC(OC2CC(O)C3(CO)C4C(O)CC5(C)C(C6=CC(=O)OC6)CCC5(O)C4CCC3(O)C2)C(O)C(O)C1O (stereo unspecified) | < 14.4 nM | 0.0437 µM | 24.9 nM | 0.217 µM | < 0.0108 µM | < 0.0142 µM | 0.0754 µM | < 0.0105 µM | 0.0323 µM | < 0.0124 µM | 0.0176 µM | 0.0216 µM | 0.0791 µM | 23.9 nM | – | 0.235 µM | < 0.0199 µM | 0.046 µM | 18.7 nM | 0.116 µM
6 | CCOC(=O)C(=O)N=Nc1nc2c(O)c3ccccc3c(O)c2s1 | – | 27.1 µM | – | 20.8 µM | – | 4.91 µM | 8.98 µM | – | 39.6 µM | – | 3.64 µM | – | 23.1 µM | – | – | > 100 µM | – | 5.12 µM | – | 25.2 µM
7 | COc1cccc(C2C3=C(COC3=O)N(CCO)c3cc4c(cc32)OCCO4)c1 (stereo unspecified) | 120 nM | > 50 µM | 79.8 nM | 1.85 µM | 0.15 µM | > 50 µM | 0.219 µM | 0.891 µM | – | 0.472 µM | > 50 µM | 0.0348 µM | 2.89 µM | 108 nM | 111 nM | 0.422 µM | 0.22 µM | > 50 µM | 39.6 nM | 0.268 µM
8 | CC[CH2][Sn]([Cl])([Cl])[CH2]CC | 16200 nM | 35.9 µM | 16000 nM | 30.9 µM | 9.13 µM | 22 µM | 25.6 µM | 3.16 µM | 11.1 µM | 12.9 µM | 25.6 µM | 10.6 µM | 23.7 µM | 8530 nM | 2940 nM | > 100 µM | 14.7 µM | 30.1 µM | 10800 nM | 22.5 µM
9 | CNc1ccc(-c2cc(=O)oc3ccc(Cl)cc23)cc1 | 226 nM and 64 nM | > 100 µM | 50.6 nM and 43.3 nM | > 100 µM | 0.311 µM and 0.219 µM | > 100 µM | 0.0932 µM | 0.702 µM and 0.21 µM | > 100 µM | – | > 100 µM | – | 7.96 µM | 278 nM and 201 nM | 43.1 nM and 31.7 nM | 2.05 µM and 1.14 µM | 0.601 µM and 0.197 µM | > 100 µM | 215 nM and 29.4 nM | 1.17 µM and 1.27 µM
10 | COC(=O)Nc1nc2cc3c(cc2s1)OCCO3 | > 50000 nM | > 50 µM | > 50000 nM | > 50 µM | > 50 µM | > 50 µM | > 50 µM | > 50 µM | > 50 µM | > 50 µM | > 50 µM | > 50 µM | > 50 µM | > 50000 nM | > 50000 nM | > 50 µM | > 50 µM | > 50 µM | > 50000 nM | > 50 µM
11 | CN(C)CCN=Cc1c2ccccc2c(=O)n2c1oc1ccccc12 | 11500 nM | 29.9 µM | 8800 nM | 21.7 µM | 10.5 µM | 23 µM | 48.2 µM | 3.44 µM | 14 µM | 18.4 µM | 51.6 µM | 12.3 µM | 44.1 µM | – | 10900 nM | 55 µM | 5.89 µM | 21.5 µM | 16600 nM | –
12 | OC(COc1cccc2ccccc12)CN1CCN(c2ccccc2)CC1 (stereo unspecified) | 12500 nM | 29 µM | 16100 nM | 31 µM | 15.9 µM | 31.9 µM | 30.6 µM | 13.6 µM | 26.9 µM | 14.1 µM | 27.6 µM | 4.86 µM | 19 µM | 16400 nM | 21100 nM | 52.4 µM | 17.3 µM | 32.1 µM | 16200 nM | 30.9 µM
13 | COc1ccc(-c2cc(/C=C3\C(=O)Nc4ccc(OC)cc43)[nH]n2)cc1 | > 100000 nM | > 100 µM | 1620 nM | > 100 µM | > 100 µM | > 100 µM | > 100 µM | > 100 µM | > 100 µM | > 100 µM | > 100 µM | > 100 µM | > 100 µM | 4530 nM | 821 nM | > 100 µM | 19.5 µM | > 100 µM | 43500 nM | > 100 µM
